Laboratory results: the supplement of paper PMC10307832

How the values were obtained:
Assay in all cases: relative viability (nuclei count vs DMSO), 5 days (fraction); higher = more cells survive
[1] = compound: C=CCn1c(=O)c2cnc(Nc3ccc(N4CCN(C)CC4)cc3)nc2n1-c1cccc(C(C)(C)O)n1 [Adavosertib] + CC(=O)c1c(C)c2cnc(Nc3ccc(N4CCNCC4)cn3)nc2n(C2CCCC2)c1=O [Palbociclib] (partner 0.5 µM)
How it was run: (§1)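 Dosing by pin tool came one day after lung cancer cell lines were seeded in 1536-well plates, using either one drug or a fixed anchor-drug dose plus five library-drug doses (not always all listed) in √10 steps. After 5 days, nuclei were counted on 4× images. Relative viability is treated-well nuclei count divided by vehicle-well nuclei count, and values are medians of duplicate plates.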

Nelarabine + Decitabine = compound: COc1nc(N)nc2c1ncn2[C@@H]1O[C@H](CO)[C@@H](O)[C@@H]1O [Nelarabine] + Nc1ncn([C@H]2C[C@H](O)[C@@H](CO)O2)c(=O)n1 [Decitabine] (partner 2 µM)
How it was run: as §1

Adavosertib + AZD7762 = compound: C=CCn1c(=O)c2cnc(Nc3ccc(N4CCN(C)CC4)cc3)nc2n1-c1cccc(C(C)(C)O)n1 [Adavosertib] + NC(=O)Nc1cc(-c2cccc(F)c2)sc1C(=O)N[C@H]1CCCNC1 [AZD7762] (partner 0.2 µM)
How it was run: as §1

Nelarabine + Crizotinib = compound: COc1nc(N)nc2c1ncn2[C@@H]1O[C@H](CO)[C@@H](O)[C@@H]1O [Nelarabine] + C[C@@H](Oc1cc(-c2cnn(C3CCNCC3)c2)cnc1N)c1c(Cl)ccc(F)c1Cl [Crizotinib] (partner 1 µM)
How it was run: as §1

Cell Line | relative viability ([1]; first compound 0.01 µM) | relative viability ([1]; first compound 0.03162 µM) | relative viability ([1]; first compound 0.1 µM) | relative viability ([1]; first compound 0.3162 µM) | relative viability (Nelarabine + Decitabine; first compound 0.01 µM) | relative viability (Nelarabine + Decitabine; first compound 0.03162 µM) | relative viability (Nelarabine + Decitabine; first compound 0.1 µM) | relative viability (Nelarabine + Decitabine; first compound 0.3162 µM) | relative viability (Nelarabine + Decitabine; first compound 1 µM) | relative viability (Adavosertib + AZD7762; first compound 0.01 µM) | relative viability (Adavosertib + AZD7762; first compound 0.03162 µM) | relative viability (Adavosertib + AZD7762; first compound 0.1 µM) | relative viability (Adavosertib + AZD7762; first compound 0.3162 µM) | relative viability (Nelarabine + Crizotinib; first compound 0.01 µM) | relative viability (Nelarabine + Crizotinib; first compound 0.03162 µM) | relative viability (Nelarabine + Crizotinib; first compound 0.1 µM) | relative viability (Nelarabine + Crizotinib; first compound 0.3162 µM) | relative viability (Nelarabine + Crizotinib; first compound 1 µM)
HARA | 0.21 | 0.271 | 0.349 | 0.265 | 0.436 | 0.577 | 0.442 | 0.668 | 0.539 | 0.296 | 0.192 | 0.155 | 0.129 | 1.21 | 1.09 | 0.909 | 1.24 | 1.12
NCI-H2126 | 0.352 | 0.34 | 0.352 | 0.35 | 0.658 | 0.616 | 0.563 | 0.594 | 0.559 | 0.962 | 1.03 | 0.949 | 0.788 | 1.19 | 1.07 | 1.01 | 1.05 | 0.998
NCI-H1703 | – | – | – | – | – | – | – | – | – | 0.105 | 0.13 | 0.122 | 0.118 | 0.577 | 0.701 | 0.78 | 1.01 | 0.594
UMC-11 | 0.326 | 0.339 | 0.348 | 0.351 | 0.71 | 0.551 | 0.578 | 0.589 | 0.61 | – | – | – | – | 0.52 | 0.499 | 0.476 | 0.652 | 0.495
PC-14 | 0.508 | 0.577 | 0.516 | 0.0749 | 0.225 | 0.231 | 0.202 | 0.219 | 0.224 | 0.261 | 0.289 | 0.224 | 0.0765 | 0.909 | 0.89 | 0.875 | 0.832 | 0.868
NCI-H1792 | – | 0.661 | 0.779 | 0.829 | 0.642 | 0.428 | 0.573 | 0.579 | 0.634 | 0.683 | 0.652 | 0.452 | 0.135 | 0.821 | – | 1.29 | 1.15 | 1.03
NCI-H1651 | 0.499 | 0.523 | 0.572 | 0.612 | 0.487 | 0.725 | 0.61 | 0.648 | 0.527 | 0.415 | 0.299 | 0.264 | 0.132 | 0.959 | 0.818 | 0.902 | 0.891 | 0.899
HCC-15 | 0.744 | 0.706 | 0.739 | 0.899 | 0.739 | 0.58 | 0.656 | 0.63 | 0.731 | 1.1 | 1.28 | 1.57 | 1.14 | 1.01 | 0.782 | 0.86 | 0.97 | 0.887
NCI-H2170 | 0.403 | 0.419 | 0.399 | 0.36 | 0.473 | 0.546 | 0.484 | 0.47 | 0.427 | 0.919 | 0.838 | 0.725 | 0.266 | 1.47 | 1.01 | 1.24 | 1.35 | 1.26
SW 1573 | 0.364 | 0.42 | 0.401 | 0.392 | 0.582 | 0.503 | 0.513 | 0.58 | 0.483 | – | – | – | – | 0.788 | 0.769 | 0.745 | 0.733 | 0.717
NCI-H661 | 0.424 | 0.449 | 0.464 | 0.451 | 0.625 | 0.614 | 0.599 | 0.628 | 0.515 | – | – | – | – | – | 0.877 | 0.989 | 0.973 | 0.934
PC-3 [JPC-3] | – | 0.502 | 0.28 | 0.544 | 0.84 | 0.81 | 0.843 | 0.799 | 0.872 | – | 0.757 | 0.777 | 0.709 | 1.15 | 1.02 | 1.01 | 0.977 | 0.968
NCI-H358 | 0.15 | 0.137 | 0.0992 | 0.128 | 0.219 | 0.214 | 0.171 | 0.215 | 0.219 | 0.486 | 0.488 | 0.329 | 0.234 | 0.58 | 0.481 | 0.4 | 0.573 | 0.514
COR-L23 | 0.291 | 0.338 | 0.274 | 0.205 | 0.532 | 0.381 | 0.408 | 0.482 | 0.446 | – | – | – | – | 0.692 | 0.706 | 0.574 | 0.617 | 0.628
IA-LM | – | – | – | – | – | – | – | – | – | – | – | – | – | 1.08 | 0.674 | 0.844 | 0.876 | 0.791
ABC-1 | 0.736 | 0.745 | 0.777 | 0.896 | 1.25 | 1.21 | 1.09 | 1.05 | 0.972 | 0.87 | 0.706 | 0.623 | 0.802 | 1.07 | 1.09 | 0.994 | 1.14 | 0.976
RERF-LC-KJ | 0.977 | 1.07 | 1.14 | 1.03 | 0.764 | 0.639 | 0.705 | 0.699 | 0.711 | 0.987 | 1.02 | 1.02 | 0.878 | 0.871 | 0.954 | 0.82 | 0.846 | 0.902
NCI-H1563 | – | – | – | – | – | – | – | – | – | – | – | – | – | 0.815 | 0.93 | 0.797 | 0.845 | 0.841
A-427 | 0.517 | 0.567 | 0.538 | 0.52 | 0.551 | 0.576 | 0.476 | 0.528 | 0.535 | 0.692 | 0.4 | 0.327 | 0.231 | 1.02 | 0.636 | 0.872 | 0.957 | 0.893
EKVX | 0.365 | 0.354 | 0.344 | 0.5 | 0.373 | 0.266 | 0.356 | 0.292 | 0.571 | 0.595 | 0.731 | 0.635 | 0.799 | 1.16 | 0.83 | 0.894 | 1.41 | 0.979
